# Measurements reported in patent US8338608B2, “Inhibitors of ion channels” (Icagen Inc., priority 2005, dated 2012).
# Target: T1, hSCN3A (Homo sapiens, UniProt Q9NY46)
# T1 construct: expressed in transfected cells
# Experiment: SCN3A inhibitory activity in HEK cells stably expressing hSCN3A (whole-cell patch clamp / radiotracer efflux HTS)
# Type: cell-based
# Settings: not given
# T1 sequence (Q9NY46 whole entry): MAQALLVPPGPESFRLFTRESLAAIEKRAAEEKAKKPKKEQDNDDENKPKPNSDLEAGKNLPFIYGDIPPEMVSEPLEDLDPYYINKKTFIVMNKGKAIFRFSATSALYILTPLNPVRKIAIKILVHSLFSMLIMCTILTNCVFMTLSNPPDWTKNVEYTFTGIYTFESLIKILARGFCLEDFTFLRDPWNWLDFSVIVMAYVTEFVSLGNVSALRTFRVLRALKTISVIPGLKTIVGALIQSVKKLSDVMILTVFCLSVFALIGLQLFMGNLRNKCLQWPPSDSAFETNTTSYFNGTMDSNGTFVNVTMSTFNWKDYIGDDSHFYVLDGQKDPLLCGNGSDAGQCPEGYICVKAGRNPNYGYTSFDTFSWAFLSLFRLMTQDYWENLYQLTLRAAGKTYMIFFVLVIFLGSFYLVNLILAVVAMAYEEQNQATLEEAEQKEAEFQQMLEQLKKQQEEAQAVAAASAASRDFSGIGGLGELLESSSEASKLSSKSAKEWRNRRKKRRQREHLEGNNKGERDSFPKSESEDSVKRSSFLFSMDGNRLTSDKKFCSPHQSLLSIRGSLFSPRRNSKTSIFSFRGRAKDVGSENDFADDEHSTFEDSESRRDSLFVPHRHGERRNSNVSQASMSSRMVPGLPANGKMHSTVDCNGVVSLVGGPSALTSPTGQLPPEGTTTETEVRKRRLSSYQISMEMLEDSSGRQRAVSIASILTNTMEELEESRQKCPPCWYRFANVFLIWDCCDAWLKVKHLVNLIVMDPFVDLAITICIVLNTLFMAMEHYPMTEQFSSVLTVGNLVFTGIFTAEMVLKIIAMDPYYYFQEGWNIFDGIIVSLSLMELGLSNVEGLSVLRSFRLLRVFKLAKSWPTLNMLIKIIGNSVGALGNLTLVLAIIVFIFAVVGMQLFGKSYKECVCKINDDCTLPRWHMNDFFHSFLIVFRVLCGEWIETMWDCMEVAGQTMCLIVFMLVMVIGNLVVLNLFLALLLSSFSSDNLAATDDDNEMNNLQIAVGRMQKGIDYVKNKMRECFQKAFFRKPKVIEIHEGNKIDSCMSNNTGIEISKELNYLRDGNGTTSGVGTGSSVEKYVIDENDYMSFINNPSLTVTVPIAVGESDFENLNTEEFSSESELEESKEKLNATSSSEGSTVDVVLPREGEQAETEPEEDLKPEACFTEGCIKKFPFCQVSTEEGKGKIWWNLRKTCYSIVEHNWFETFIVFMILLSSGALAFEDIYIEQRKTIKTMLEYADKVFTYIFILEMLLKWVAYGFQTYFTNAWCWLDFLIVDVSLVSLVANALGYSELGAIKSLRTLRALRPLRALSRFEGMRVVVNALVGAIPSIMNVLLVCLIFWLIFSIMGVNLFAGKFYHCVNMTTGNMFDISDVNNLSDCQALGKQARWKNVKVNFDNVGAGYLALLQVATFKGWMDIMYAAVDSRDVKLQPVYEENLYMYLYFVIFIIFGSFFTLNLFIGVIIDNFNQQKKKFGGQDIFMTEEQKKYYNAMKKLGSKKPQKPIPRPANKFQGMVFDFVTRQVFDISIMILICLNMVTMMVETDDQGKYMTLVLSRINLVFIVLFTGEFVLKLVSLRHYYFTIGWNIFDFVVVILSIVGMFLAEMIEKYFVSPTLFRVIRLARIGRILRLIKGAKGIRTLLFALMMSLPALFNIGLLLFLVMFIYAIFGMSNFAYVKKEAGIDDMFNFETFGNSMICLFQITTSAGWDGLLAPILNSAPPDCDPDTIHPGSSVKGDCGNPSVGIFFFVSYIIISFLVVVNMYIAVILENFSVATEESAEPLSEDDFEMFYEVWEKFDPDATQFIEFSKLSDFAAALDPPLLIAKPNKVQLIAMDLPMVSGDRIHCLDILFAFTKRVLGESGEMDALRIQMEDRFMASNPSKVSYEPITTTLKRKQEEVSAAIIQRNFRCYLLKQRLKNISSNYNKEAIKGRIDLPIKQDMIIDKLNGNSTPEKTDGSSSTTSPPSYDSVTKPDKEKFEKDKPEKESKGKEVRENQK
row,IC50 [nM],Compound
1,100 to 500,"O=S(=O)(Nc1nccs1)c1ccc(S(=O)(=O)N2CC(COc3cccc(Cl)c3)C2)cc1 [Compound 36, 4-[3-(3-Chloro-phenoxymethyl)-azetidine-1-sulfonyl]-N-thiazol-2-yl-benzenesulfonamide]"

# Same assay, conditions: HEK cells stably transfected with hSCN3A; read-out: SCN3A Inhibitory Activity
row,Compound,IC50 [nM]
1,"CC(C)(CNS(=O)(=O)c1ccc(S(=O)(=O)Nc2ncc(Cl)s2)cc1)Oc1ccc(C(C)(C)C)cc1 [Compound 14, Benzene-1,4-disulfonic acid 1-{[2-(4-tert-butyl-phenoxy)-2-methyl-propyl]-amide} 4-[(5-chloro-thiazol-2-yl)-amide]]",< 100
2,"O=S(=O)(NCc1ccc(C(F)(F)F)cc1)c1ccc(S(=O)(=O)Nc2ncc(Cl)s2)cc1 [Compound 15, Benzene-1,4-disulfonic acid 1-[(5-chloro-thiazol-2-yl)-amide] 4-(4-trifluoromethyl-benzylamide)]",< 100
3,"CC(C)(C)c1ccc(NCCNS(=O)(=O)c2ccc(S(=O)(=O)Nc3nccs3)cc2)cc1 [Compound 16, Benzene-1,4-disulfonic acid 1-{[2-(4-tert-butyl-phenylamino)-ethyl]-amide} 4-thiazol-2-ylamide]",< 100
4,"O=S(=O)(NCC1(Oc2ccc(Cl)cc2)CCC1)c1ccc(S(=O)(=O)Nc2nccs2)cc1 [Compound 17, Benzene-1,4-disulfonic acid 1-{[1-(4-chloro-phenoxy)-cyclobutylmethyl]-amide} 4-thiazol-2-ylamide]",< 100
5,"Cc1cc(OCCNS(=O)(=O)c2ccc(S(=O)(=O)Nc3nccs3)cc2)ccc1Cl [Compound 18, Benzene-1,4-disulfonic acid 1-{[2-(4-chloro-3-methyl-phenoxy)-ethyl]-amide} 4-thiazol-2-ylamide]",< 100
6,"O=S(=O)(Nc1nccs1)c1ccc(S(=O)(=O)N2CCC[C@H]2COc2ccc(Cl)cc2)cc1 [Compound 19, 4-[(S)-2-(4-chloro-phenoxymethyl)-pyrrolidine-1-sulfonyl]-N-thiazol-2-yl-benzenesulfonamide]",< 100
7,"O=S(=O)(NCC1(Oc2ccc(Cl)cc2F)CCC1)c1ccc(S(=O)(=O)Nc2nccs2)cc1 [Compound 20, Benzene-1,4-disulfonic acid 1-{[1-(4-chloro-2-fluoro-phenoxy)-cyclobutylmethyl]-amide} 4-thiazol-2-ylamide]",< 100
8,"O=S(=O)(NCC1(c2ccc(Cl)cc2)CCC1)c1ccc(S(=O)(=O)Nc2nccs2)cc1 [Compound 21, Benzene-1,4-disulfonic acid 1-{[1-(4-chloro-phenyl)-cyclobutylmethyl]-amide} 4-thiazol-2-ylamide]",< 100
9,O=S(=O)(NCCC(c1ccccc1)c1ccccc1)Nc1ccc(S(=O)(=O)Nc2nccs2)nc1 [Compound 22],100 to 500
10,"O=S(=O)(Nc1nccs1)c1ccc(NS(=O)(=O)N2CCN(c3ccc(Cl)c(Cl)c3)CC2)cc1 [Compound 23, 4-(3,4-Dichloro-phenyl)-piperazine-1-sulfonic acid [4-(thiazol-2-ylsulfamoyl)-phenyl]-amide]",100 to 500
11,"O=S(=O)(NCC(c1ccccc1)c1ccccc1)c1ccc(S(=O)(=O)Nc2nccs2)cc1 [Compound 24, Benzene-1,4-disulfonic acid 1-[(2,2-diphenyl-ethyl)-amide] 4-thiazol-2-ylamide]",100 to 500
12,"O=S(=O)(NCCc1ccc(Cl)c(Cl)c1)c1cc(F)c(S(=O)(=O)Nc2nccs2)cc1F [Compound 25, 2,5-Difluoro-benzene-1,4-disulfonic acid 1-{[2-(3,4-dichloro-phenyl)-ethyl]-amide} 4-thiazol-2-ylamide]",100 to 500
13,"O=S(=O)(Nc1ncc(Cl)s1)c1ccc(S(=O)(=O)N2CC(Oc3ncc(C(F)(F)F)cc3Cl)C2)cc1 [Compound 26, N-(5-chloro-thiazol-2-yl)-4-[3-(3-chloro-5-trifluoromethyl-pyridin-2-yloxy)-azetidine-1-sulfonyl]-benzenesulfonamide]",100 to 500
14,"O=S(=O)(NCCc1ccc(Cl)cc1)c1ccc(S(=O)(=O)Nc2nccs2)cc1 [Compound 27, Benzene-1,4-disulfonic acid 1-{[2-(4-chloro-phenyl)-ethyl]-amide} 4-thiazol-2-ylamide]",100 to 500
15,"O=S(=O)(Nc1ncc(Cl)s1)c1ccc(S(=O)(=O)N2CC(=Cc3ccc(Cl)c(Cl)c3)C2)cc1 [Compound 28, N-(5-chloro-thiazol-2-yl)-4-[3-(3,4-dichloro-benzylidene)-azetidine-1-sulfonyl]-benzenesulfonamide]",100 to 500
16,"O=S(=O)(Nc1nccs1)c1ccc(S(=O)(=O)N2CCC(Cc3ccc(Cl)cc3)CC2)cc1 [Compound 29, 4-[4-(4-Chloro-benzyl)-piperidine-1-sulfonyl]-N-thiazol-2-yl-benzenesulfonamide]",100 to 500
17,"O=S(=O)(Nc1nccs1)c1ccc(S(=O)(=O)NC2CCCCCC2)cc1 [Compound 30, Benzene-1,4-disulfonic acid 1-cycloheptylamide 4-thiazol-2-ylamide]",100 to 500
18,"CC(C)(CNS(=O)(=O)c1ccc(S(=O)(=O)Nc2nccs2)cc1)Nc1ccc(C(C)(C)C)cc1 [Compound 31, Benzene-1,4-disulfonic acid 1-{[2-(4-tert-butyl-phenylamino)-2-methyl-propyl]-amide} 4-thiazol-2-ylamide]",100 to 500
19,"C[C@H](CNS(=O)(=O)c1ccc(S(=O)(=O)Nc2ncc(Cl)s2)cc1)Oc1ccc(Cl)cc1 [Compound 32, Benzene-1,4-disulfonic acid 1-{[(R)-2-(4-chloro-phenoxy)-propyl]-amide} 4-[(5-chloro-thiazol-2-yl)-amide]]",100 to 500
20,"C[C@@H](CNS(=O)(=O)c1ccc(S(=O)(=O)Nc2ncc(Cl)s2)cc1)Oc1ccc(Cl)cc1 [Compound 33, Benzene-1,4-disulfonic acid 1-{[(S)-2-(4-chloro-phenoxy)-propyl]-amide} 4-[(5-chloro-thiazol-2-yl)-amide]]",100 to 500
21,"O=S(=O)(NCCOc1ccc(Cl)cc1F)c1ccc(S(=O)(=O)Nc2nccs2)cc1 [Compound 34, Benzene-1,4-disulfonic acid 1-{[2-(4-chloro-2-fluoro-phenoxy)-ethyl]-amide} 4-thiazol-2-ylamide]",100 to 500
22,"CN(CCOc1ccc(C(C)(C)C)cc1)S(=O)(=O)c1ccc(S(=O)(=O)Nc2nccs2)cc1 [Compound 35, Benzene-1,4-disulfonic acid 1-{[2-(4-tert-butyl-phenoxy)-ethyl]-methyl-amide} 4-thiazol-2-ylamide]",100 to 500
23,"COc1ccc(CNS(=O)(=O)c2ccc(S(=O)(=O)Nc3nccs3)cc2)cc1Cl [Compound 37, Benzene-1,4-disulfonic acid 1-(3-chloro-4-methoxy-benzylamide) 4-thiazol-2-ylamide]",100 to 500
24,"CC(C)(C)c1ccc(OC2(CNS(=O)(=O)c3ccc(S(=O)(=O)Nc4nccs4)cc3)CCCC2)cc1 [Compound 38, Benzene-1,4-disulfonic acid 1-{[1-(4-tert-butyl-phenoxy)-cyclopentylmethyl]-amide} 4-thiazol-2-ylamide]",100 to 500

# Further lines, results first:
row,IC50 [nM],Compound
1,< 100,"O=S(=O)(Nc1ccc(S(=O)(=O)Nc2nccs2)cc1)N[C@@H]1C[C@H]1c1ccccc1 (relative stereo) [Compound 4, N-(trans-2-phenylcyclopropyl)-N′-[4-(N-thiazol-2-yl-sulfonamyl)-phenyl]-sulfamide]"
2,< 100,O=S(=O)(NCC(c1ccccc1)c1ccccc1)Nc1ccc(S(=O)(=O)Nc2nccs2)cc1 [Compound 1]
3,< 100,"O=S(=O)(NCCC(c1ccccc1)c1ccccc1)Nc1ccc(S(=O)(=O)Nc2nccs2)cc1 [Compound 2, N-(3,3-diphenylpropyl]-N′-[4-(N-thiazol-2-yl-sulfonamyl)-phenyl]-sulfamide]"
4,< 100,O=S(=O)(NCCc1ccc(Cl)c(Cl)c1)Nc1ccc(S(=O)(=O)Nc2nccs2)cc1 [Compound 3]
5,< 100,"O=S(=O)(NCCc1ccc(Oc2ccccc2)cc1)Nc1ccc(S(=O)(=O)Nc2nccs2)cc1 [Compound 5, N-[2-(4-phenoxyl-phenyl)-ethyl]-N′-[4-(N-thiazol-2-yl-sulfonamyl)-phenyl]-sulfamide]"
6,< 100,"CC(C)(C)c1ccc(OCCNS(=O)(=O)c2ccc(S(=O)(=O)Nc3ncc(Cl)s3)cc2)cc1 [Compound 6, Benzene-1,4-disulfonic acid 1-{[2-(4-tert-butyl-phenoxy)-ethyl]-amide} 4-[(5-chloro-thiazol-2-yl)-amide]]"
7,< 100,"CC(C)(C)CCNS(=O)(=O)c1ccc(S(=O)(=O)Nc2ncc(Cl)s2)cc1 [Compound 7, Benzene-1,4-disulfonic acid 1-[(5-chloro-thiazol-2-yl)-amide] 4-[(3,3-dimethyl-butyl)-amide]]"
8,< 100,"O=S(=O)(Nc1nccs1)c1ccc(S(=O)(=O)N2CCC(Oc3cccc(Cl)c3)CC2)cc1 [Compound 8, 4-[4-(3-Chloro-phenoxy)-piperidine-1-sulfonyl]-N-thiazol-2-yl-benzenesulfonamide]"
9,< 100,"O=S(=O)(NCC1COc2cc(Cl)c(Cl)cc2O1)c1ccc(S(=O)(=O)Nc2nccs2)cc1 (centres unmarked) [Compound 9, Benzene-1,4-disulfonic acid 1-[(6,7-dichloro-2,3-dihydro-benzo[1,4]dioxin-2-ylmethyl)-amide] 4-thiazol-2-ylamide]"
10,< 100,"O=S(=O)(Nc1ncc(Cl)s1)c1ccc(S(=O)(=O)N2CCN(c3ccc(Cl)cc3F)CC2)cc1 [Compound 10, 4-[4-(4-Chloro-2-fluoro-phenyl)-piperazine-1-sulfonyl]-N-(5-chloro-thiazol-2-yl)-benzenesulfonamide]"
11,< 100,"CC(C)(C)c1ccc(CNS(=O)(=O)c2ccc(S(=O)(=O)Nc3nccs3)cc2)cc1 [Compound 11, Benzene-1,4-disulfonic acid 1-(4-tert-butyl-benzylamide) 4-thiazol-2-ylamide]"
12,< 100,"O=S(=O)(NCCCOc1ccc(Cl)cc1)c1ccc(S(=O)(=O)Nc2ncc(Cl)s2)cc1 [Compound 12, Benzene-1,4-disulfonic acid 1-{[3-(4-chloro-phenoxy)-propyl]-amide} 4-[(5-chloro-thiazol-2-yl)-amide]]"
13,< 100,"CN(CCNS(=O)(=O)c1ccc(S(=O)(=O)Nc2nccs2)cc1)c1ccc(Cl)cc1 [Compound 13, Benzene-1,4-disulfonic acid 1-({2-[(4-chloro-phenyl)-methyl-amino]-ethyl}-amide) 4-thiazol-2-ylamide]"
